System: hyperlipidemia of SD rats
Experiment: Therapeutic effect on hyperlipidemia of SD rats (lipid emulsion model)
Format: in vivo
Settings: for HDL-C (high density lipoprotein) / LDL-C (low density lipoprotein) / TG (serum triglyceride) / CHO (serum cholesterol): 21 days of continuous administration with lipid emulsion, fasted 12 h, serum, X ± SD, 5 animals per group; for blood lipid-reducing effect (in words) / reduction ratio of cholesterol (blood lipid-reducing effect): 21 days; for blood lipid-reducing effect (in words): hyperlipidemic SD rats, as shown by Table 1; for reduction ratio of cholesterol (blood lipid-reducing effect): (CHO of Model group - CHO of pharmaceutical-administrated group)/CHO of Model group*100%
Procedure: 1. Therapeutic Effect on Hyperlipidemia of SD Rats
Preparation process of lipid emulsion: 500 g of lard oil was taken, placed in a container, and heated to melt. When the temperature rose to 100° C., 200 g of cholesterol was added. After complete dissolution, 20 g of propylthiouracil was further added. The resulted mixture was stirred well, and added with 500 ml of Tween 80 after dissolution, resulting in an oil phase. At the same time, 600 mL of distilled water and 400 mL of 1,2-propanediol were taken and heated to 60° C. in a water bath, and then was added with 40 g of sodium deoxycholate. The resulted mixture was stirred well until complete dissolution was achieved, so as to give an aqueous phase. The aqueous phase was added into the oil phase and mixed well to give a lipid emulsion.
Process for modeling: Animals were fed adaptively for 3 days. Then, according to the body weight, 5 animals were selected as control and the remaining animals were intragastrically administered with the lipid emulsion during 9:00 to 11:00 am every day with 1 mL/100 g body weight for 2 weeks. After fasted for 12 hours, 1 mL of blood was collected from the orbits of the animals, and was determined by Hitachi Automatic Biochemical Analyzer 7080 for serum cholesterol (CHO), triglyceride (TG), low density lipoprotein (LDL-C) and high density lipoprotein (HDL-C). The animals having 4-7 mmol/L of CHO were used in the experiments.
The animals were continued with the intragastric administration of the lipid emulsion, and at the same time, the pharmaceutical-administered groups were administrated with the corresponding doses of pharmaceuticals, while the Model group was administrated with an equal volume of the solvent. The animals were administrated with the lipid emulsion in the morning and pharmaceuticals in the afternoon. The animals were measured for the body weight every Monday, and were observed. After 21 days of continuous administration, the animals were fasted for 12 hours. Then, 1 mL of blood was collected from the orbits, and was determined by Hitachi Automated Biochemical Analyzer 7080 for serum cholesterol (CHO), triglyceride (TG), low density lipoprotein (LDL-C) and high density lipoprotein (HDL-C).
The controls used in this experiment comprised Compound A and Simvastatin (also referred to as Sim herein).
The formula for calculating the blood lipid-reducing effect is: (CHO of Model group —CHO of pharmaceutical-administrated group)/CHO of Model group*100%. […] In this experiment, the effects of the compounds obtained herein for regulating blood lipids can be determined by using the blood cholesterol reduction as the main indicator, with reference to the decrease of triglyceride.

SMILES: CC(=O)c1ccc(NC(=O)C(C)(C)CCCOc2cc(C)ccc2C)cc1 [Compound 01]
- HDL-C (high density lipoprotein) (80 mg/kg): 2.02 ± 0.27 mmol/L
- LDL-C (low density lipoprotein) (80 mg/kg): 3.07 ± 1.25 mmol/L
- TG (serum triglyceride) (80 mg/kg): 0.47 ± 0.27 mmol/L
- blood lipid-reducing effect (in words) (80 mg/kg): significantly reduce the level of cholesterol
- reduction ratio of cholesterol (blood lipid-reducing effect) (80 mg/kg): 59.75%

SMILES: CC(=O)c1ccc(O)c(NC(=O)C(C)(C)CCCOc2cc(C)ccc2C)c1 [Compound 02]
- CHO (serum cholesterol) (80 mg/kg): 4.86 ± 1.08 mmol/L
- HDL-C (high density lipoprotein) (80 mg/kg): 1.94 ± 0.49 mmol/L
- LDL-C (low density lipoprotein) (80 mg/kg): 3.18 ± 0.71 mmol/L
- TG (serum triglyceride) (80 mg/kg): 0.51 ± 0.19 mmol/L
- blood lipid-reducing effect (in words) (80 mg/kg): significantly reduce the level of cholesterol
- reduction ratio of cholesterol (blood lipid-reducing effect) (80 mg/kg): 54.40%

SMILES: CC(=O)c1ccc(O)c(NC(=O)c2cccnc2)c1 [Compound 03]
- CHO (serum cholesterol) (80 mg/kg): 4.56 ± 1.24 mmol/L
- HDL-C (high density lipoprotein) (80 mg/kg): 1.81 ± 0.27 mmol/L
- LDL-C (low density lipoprotein) (80 mg/kg): 3.14 ± 1.06 mmol/L
- TG (serum triglyceride) (80 mg/kg): 0.71 ± 0.16 mmol/L
- blood lipid-reducing effect (in words) (80 mg/kg): significantly reduce the level of cholesterol
- reduction ratio of cholesterol (blood lipid-reducing effect) (80 mg/kg): 57.22%

SMILES: CC(=O)c1ccc(NC(=O)C(C)(C)Oc2ccc(Cl)cc2)cc1 [Compound 04]
- CHO (serum cholesterol) (80 mg/kg): 4.90 ± 1.09 mmol/L
- HDL-C (high density lipoprotein) (80 mg/kg): 2.00 ± 0.52 mmol/L
- LDL-C (low density lipoprotein) (80 mg/kg): 3.27 ± 1.34 mmol/L
- TG (serum triglyceride) (80 mg/kg): 0.50 ± 0.15 mmol/L
- blood lipid-reducing effect (in words) (80 mg/kg): significantly reduce the level of cholesterol
- reduction ratio of cholesterol (blood lipid-reducing effect) (80 mg/kg): 54.03%

SMILES: CC(=O)c1ccc(O)c(OC(=O)c2cccnc2)c1 [Compound 05]
- CHO (serum cholesterol) (80 mg/kg): 4.63 ± 0.41 mmol/L
- HDL-C (high density lipoprotein) (80 mg/kg): 1.95 ± 0.50 mmol/L
- LDL-C (low density lipoprotein) (80 mg/kg): 3.12 ± 0.34 mmol/L
- TG (serum triglyceride) (80 mg/kg): 0.56 ± 0.23 mmol/L
- blood lipid-reducing effect (in words) (80 mg/kg): significantly reduce the level of cholesterol
- reduction ratio of cholesterol (blood lipid-reducing effect) (80 mg/kg): 56.56%

SMILES: Cc1ccc(C)c(OCCCC(C)(C)C(=O)NCC(=O)c2ccc(O)cc2)c1 [Compound A, reference compound]
- CHO (serum cholesterol) (80 mg/kg): 6.15 ± 2.12 mmol/L
- HDL-C (high density lipoprotein) (80 mg/kg): 1.41 ± 0.28 mmol/L
- LDL-C (low density lipoprotein) (80 mg/kg): 4.97 ± 1.07 mmol/L
- TG (serum triglyceride) (80 mg/kg): 0.58 ± 0.11 mmol/L
- reduction ratio of cholesterol (blood lipid-reducing effect) (80 mg/kg): 42.30%

SMILES: CCC(C)(C)C(=O)O[C@H]1C[C@@H](C)C=C2C=C[C@H](C)[C@H](CC[C@@H]3C[C@@H](O)CC(=O)O3)[C@H]21 [Sim, Simvastatin, reference compound]
- CHO (serum cholesterol) (10 mg/kg): 6.28 ± 0.76 mmol/L
- HDL-C (high density lipoprotein) (10 mg/kg): 1.65 ± 0.26 mmol/L
- LDL-C (low density lipoprotein) (10 mg/kg): 4.54 ± 0.36 mmol/L
- TG (serum triglyceride) (10 mg/kg): 0.60 ± 0.07 mmol/L

— patent US10800733B2, “Acetophenone compound, preparation method therefor, and application thereof in blood lipid regulation” (Shanghai Bioenergy Medicine Science & Technology Co., Ltd., priority 2017, dated 2020)
